Source: PMC4564450, “Oral and inhaled p38 MAPK inhibitors: effects on inhaled LPS challenge in healthy subjects” (European Journal of Clinical Pharmacology, 2015)

Experiments:
[1] = oral, 12-week treatment; cited from earlier work
[2] = tested on: airway inflammation after LPS challenge; design: method as in PMID 17045826; details: oral, 6-day treatment; cited from earlier work
[3] = tested on: IL-6, MCP-1, MIP1β, CC16, fibrinogen and CRP levels in plasma; assay: Inhaled LPS challenge: plasma protein biomarkers; type: in vivo, human; details: study 3
Procedure: Blood samples were obtained in studies 2 and 3 to obtain plasma measurements of IL-6, MCP-1, MIP1β, CC16, fibrinogen and CRP levels; pre-dose and 6 h post-LPS samples were used for statistical analysis. This coincided with the timings of sputum measurements of inflammation biomarkers.
Systemic biomarkers were analysed using a similar mixed effects model; these models also adjusted for pre-dose baseline values, which were obtained 24 h prior to LPS challenge in study 2 and 30 min prior to LPS challenge in study 3.

[4] = Plasma pharmacokinetics (sparse sampling); type: in vivo, human; details: study 3, fluticasone 500 μg inhaled
[5] = tested on: sputum neutrophils and macrophages after inhaled LPS; assay: Inhaled LPS challenge in healthy subjects: induced sputum cell counts; type: in vivo, human; details: study 3
Procedure: Three randomised, double-blind, placebo-controlled crossover studies were performed; the effects of a single dose of active treatment was investigated in all three studies. […] Studies 2 and 3 were conducted at two UK centres: Quintiles Drug Research Unit, London, and Medicines Evaluation Unit, Manchester. […] The studies were performed during the following time periods: study 1, Sep 2006–Mar 2008; study 2, Jan 2011–Dec 2011; and study 3, Jul 2011–Jan 2012. The design of all three studies was similar. A baseline sputum sample was obtained within 14 days of the first study period when subjects were administered a single dose of randomised treatment. […] Induced sputum was obtained 6 h later to coincide with the maximal inflammatory response caused by inhaled LPS. […] This criterion was used to ensure that sputum cell counts after LPS challenge had returned to close to the original baseline values; this was done to reduce data variability between treatment periods. […] For each challenge, a 1-mg vial of lyophilised LPS (Escherichia coli serotype O26:B6, ref. L-2654, Sigma-Aldrich, Dorset, UK) was diluted with 4 mL of 0.9 % w/v sodium chloride. The reconstitution produced a 0.25 mg/mL solution, of which 2 mL was placed into the pre-calibrated dosimeter pot and administered via five inhalations from a breath-activated dosimeter (Mefar dosimeter MB3, Brescia, Italy). Each inhalation was performed over 3 s with a 6-s breath hold. […] Sputum was induced using normal saline after inhalation of salbutamol, and processing was performed using dithiothreitol (DTT) as previously described. The supernatants were stored at −80 °C for later analysis, while cells were used to produce cytoslides (Cytospin 4, Shandon, Runcorn, UK) for differential cell counting and immunocytochemistry. […] Cell viability was analysed by trypan blue exclusion. Cytoslides with % squamous cell counts <20 % were deemed to be of acceptable quality for differential cell counting. Unfixed cytoslides were wrapped in aluminium foil and stored frozen at −80 °C for immunocytochemistry. Sputum neutrophil percentage was the primary endpoint for all three studies. The neutrophil percentage was modelled using a mixed effects analysis of covariance (ANCOVA) model appropriate for a two-period, two-treatment or three-period, three-treatment crossover design. The fixed effects in the model were treatment and period. Subjects were modelled as a random effect. Additionally, the period-specific baseline was modelled as a covariate. This model was used for all sputum inflammatory markers, including the immunohistocytochemistry, where cell counts were log transformed before analyzing the data and percent differentials were not transformed. […] Ninety percent confidence intervals of the difference (non-transformed data) or the ratio (log-transformed data) were constructed based on the ANCOVA model.

[6] = tested on: IL-6, MPO, MCP-1 and MIP-1β in sputum supernatant; assay: Inhaled LPS challenge: sputum supernatant protein biomarkers; type: in vivo, human; details: study 3
Procedure: A baseline sputum sample was obtained within 14 days of the first study period when subjects were administered a single dose of randomised treatment. […] Induced sputum was obtained 6 h later to coincide with the maximal inflammatory response caused by inhaled LPS. A washout period of at least 21 days followed, with subjects returning after 14 days of the washout period for induced sputum sampling; this was performed to ensure that the total cell count, total neutrophil count and total macrophage count were within the range of −80 to +100 % of the screening values. […] If these criteria were not met, then up to two repeat visits to obtain sputum were allowed, with at least 4 days between sputum inductions. The next randomised treatment day was scheduled at least 4 days after sputum induction and was identical to the first treatment day.
Sputum was induced using normal saline after inhalation of salbutamol, and processing was performed using dithiothreitol (DTT) as previously described [20]. The supernatants were stored at −80 °C for later analysis, while cells were used to produce cytoslides (Cytospin 4, Shandon, Runcorn, UK) for differential cell counting and immunocytochemistry. Cytoslides for differential cell count were fixed in methanol (Sigma) and then stained with Rapi-Diff® (GCC Diagnostics, Sandyhurst, UK) or Wright-modified Giemsa (Accustatin WG-18, Sigma-Aldrich); a minimum of 400 non-squamous cells were counted and differential cell counts obtained as percentage of total non-squamous cells. Cell viability was analysed by trypan blue exclusion. Cytoslides with % squamous cell counts <20 % were deemed to be of acceptable quality for differential cell counting. Unfixed cytoslides were wrapped in aluminium foil and stored frozen at −80 °C for immunocytochemistry.
In studies 1 and 2, sputum supernatants were analysed for interleukin 6 (IL-6), myeloperoxidase (MPO), monocyte chemotactic protein-1 (MCP-1) and macrophage inflammatory protein-1β (MIP-1 β), using electrochemiluminescent immunoassays (ECLIA) or enzyme-linked immunosorbent assays (ELISA); the manufacturers are listed in the online supplement. In study 3, sputum supernatants were analysed for IL-6, MCP-1 and MIP-1β by the same method.

[7] = design: method as in PMID 12373268; details: single inhaled dose; cited from earlier work
[8] = fluticasone 500 μg inhaled, 6 hrs post LPS
[9] = fluticasone propionate 500 μg inhaled
[10] = fluticasone 500 μg inhaled, post LPS, ANCOVA model mean
[11] = fluticasone 500 μg inhaled, post LPS

For `Cc1c(F)cc(C(=O)NC2CC2)cc1-c1ccc(C(=O)NCC(C)(C)C)cn1` [losmapimod, reference compound], the “sputum neutrophil counts in COPD patients” value [1] is listed as “failed to reduce”.

In the case of `C[C@]12C=CC(=O)C=C1CC[C@@H]1[C@@H]2[C@@H](O)C[C@@]2(C)[C@H]1CC[C@]2(O)C(=O)CO` [prednisolone], the “airway inflammation in an LPS challenge study” value [2] is listed as “no effect” and the “plasma CRP levels in an LPS challenge study” value [2] is listed as “suppressed”.

For `CCC(=O)O[C@]1(C(=O)SCF)[C@H](C)C[C@H]2[C@@H]3C[C@H](F)C4=CC(=O)C=C[C@]4(C)[C@@]3(F)[C@@H](O)C[C@@]21C` [fluticasone propionate, reference compound], the “Plasma CC16, mean” value [3, 8] was 10.51 ng/mL, the “Plasma CRP, mean” value [3, 8] was 708.10 ng/mL and the “Plasma Fibrinogen, mean” value [3, 8] was 2058.00 µg/mL. The “Plasma IL-6, mean” value [3, 8] was 23.30 pg/mL, the “Plasma MCP-1, mean” value [3, 8] was 401.70 pg/mL and the “Plasma MIP-1β, mean” value [3, 8] was 76.95 pg/mL. For the same compound, the “systemic biomarkers compared to placebo” value [3, 9] was “no effect”, the Plasma concentration ([4]; 1.5 h) was 56.0 (29.4) pg/mL and the Plasma concentration ([4]; 6.5 h) was 37.31 (15.1) pg/mL. The “Mean (SD) sputum neutrophil percentage” value ([5]; fluticasone 500 μg inhaled single dose, 6 h post-LPS) was 70.0 (12.9) %, the “Macrophage Differential in sputum” value [5, 10] was 27.53% and the “Total Cell Count in sputum” value [5, 10] was 3.02e+06 g⁻¹. The “Total Macrophage Count in sputum” value [5, 10] was 820000 g⁻¹, the “Total Neutrophil Count in sputum” value [5, 10] was 2.04e+06 g⁻¹ and the “sputum neutrophil percentage post-LPS challenge compared to placebo” value ([5]; fluticasone propionate 500 μg inhaled single dose, p = 0.55) was “not changed significantly”. For the same compound, the “Total Cell Count in sputum, Ratio of Means active/placebo” value ([5]; post LPS) was 0.90, the “Total Macrophage Count in sputum, Ratio of Means active/placebo” value ([5]; post LPS) was 0.93 and the “Total Neutrophil Count in sputum, Ratio of Means active/placebo” value ([5]; post LPS) was “no effects”. For the same compound, the “Macrophage Differential in sputum, difference between the active treatment mean and the placebo mean” value ([5]; post LPS, footnote: difference, not ratio) was 2.04%, the “Total Neutrophil Count in sputum, Ratio of Means active/placebo” value ([5]; post LPS, listed as Fluticasone) was 0.66 and the “Sputum IL-6, mean” value [6, 11] was 200.97 pg/mL. For the same compound, the “Sputum MCP-1, mean” value [6, 11] was 133.79 pg/mL, the “Sputum MIP-1β, mean” value [6, 11] was 1157.87 pg/mL and the “sputum cytokine measurements compared to placebo” value [6, 9] was “no effects”. For the same compound, the “effects of bronchial challenges in asthma” value [7] was “significantly inhibit”.
